Experimental data from paper PMC9040635 (RSC Advances, 2021).

Assays:
[1] = test system: formalin-induced rat paw oedema; test: Formalin-induced hind rat paw oedema assay; format: in vivo; conditions: low dose 10 mg kg^−1 b.w, intraperitoneal, mean ± SEM n = 5
[2] = target: T1, COX-1 (Ovis aries, UniProt P05979); test: COX-1 inhibitory assay; format: biochemical; conditions: Cyclooxygenase-1; ΔGexp = −RT ln IC50, T = 300 K
T1 sequence (P05979 25-600): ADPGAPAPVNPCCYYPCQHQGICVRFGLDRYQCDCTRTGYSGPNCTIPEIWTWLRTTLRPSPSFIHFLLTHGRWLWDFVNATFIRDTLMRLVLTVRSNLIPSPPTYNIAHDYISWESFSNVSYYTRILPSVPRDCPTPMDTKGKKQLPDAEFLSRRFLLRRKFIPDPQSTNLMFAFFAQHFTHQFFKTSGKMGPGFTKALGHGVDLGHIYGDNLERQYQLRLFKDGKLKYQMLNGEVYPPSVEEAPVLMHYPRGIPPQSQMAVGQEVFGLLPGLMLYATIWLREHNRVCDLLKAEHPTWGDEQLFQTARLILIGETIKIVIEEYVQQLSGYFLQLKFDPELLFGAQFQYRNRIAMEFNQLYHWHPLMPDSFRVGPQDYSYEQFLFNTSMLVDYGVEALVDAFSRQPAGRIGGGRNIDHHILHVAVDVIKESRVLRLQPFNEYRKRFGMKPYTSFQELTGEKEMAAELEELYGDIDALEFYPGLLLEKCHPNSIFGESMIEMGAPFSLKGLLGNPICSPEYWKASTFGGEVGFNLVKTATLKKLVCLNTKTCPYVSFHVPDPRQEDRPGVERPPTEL

| ΔGexp (experimental binding free energy) [2] [kcal/mol] | SMILES | percentage reduction of rat paw oedema ([1]; 1 h) [%] | percentage reduction of rat paw oedema ([1]; 2 h) [%] | percentage reduction of rat paw oedema ([1]; 4 h) [%] |
| --- | --- | --- | --- | --- |
| – | Cc1ccc(-c2cc(C(F)(F)F)nn2-c2ccc(S(N)(=O)=O)cc2)cc1 [Celecoxib] | 24.7 ± 2.2 | 31.4 ± 1.8 | 38.5 ± 1.7 |
| -11.0 | COc1ccc2c(c1)c(CC(=O)O)c(C)n2C(=O)c1ccc(Cl)cc1 [Indomethacin] | 23.3 ± 2.2 | 31.0 ± 3.0 | 37.4 ± 2.8 |
